Drawing on BindingDB's records for doi:10.1096/fj.02-0026fje (Chul, 2002), this text covers IC50 and Ki for four compounds.

By pIC50 is commonly meant −log10 of the IC50, conventionally taken in molar units. One may read the pKi as −log10 of the Ki, conventionally taken in molar units. A high value points to a low Ki.

The structures appear in SMILES notation. pIC50, pKi: −log10 of the molar value.

Assay [1] addresses T1, 17-beta-hydroxysteroid dehydrogenase type 1 (Homo sapiens, UniProt P14061).
T1 sequence (P14061 whole entry): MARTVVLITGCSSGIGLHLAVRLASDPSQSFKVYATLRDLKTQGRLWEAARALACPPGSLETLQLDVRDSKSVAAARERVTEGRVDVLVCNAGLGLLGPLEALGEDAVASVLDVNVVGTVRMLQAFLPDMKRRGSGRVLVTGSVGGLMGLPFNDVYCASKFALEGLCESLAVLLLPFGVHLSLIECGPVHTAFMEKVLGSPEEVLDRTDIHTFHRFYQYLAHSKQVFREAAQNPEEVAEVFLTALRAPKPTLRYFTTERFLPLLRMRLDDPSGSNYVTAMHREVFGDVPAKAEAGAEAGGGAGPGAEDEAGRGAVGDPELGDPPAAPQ
The assay can be described thus: Enzymatic Assay (Inhibition of Type 1 17beta-HSD). As to conditions: pH 7.4; 37 °C. On the procedure:
The enzymatic reaction was performed in the reaction buffer containing substrate, [14C]-estrone, and the test inhibitors. After the reaction, radiolabeled steroids were extracted from the reaction mixture, and solvent was evaporated to dryness. Steroids were dissolved and separated on TLC plates. Radioactivity signals were detected and quantified using a PhosphoImager (Sunny Vale, CA). The percentage of transformation of [14C]-E1 into [14C]-E2 was calculated. The IC50 values were calculated using an unweighted iterative least-squares method for four-parameter logistic curve fitting (DE50 program, CHUL Research Center, Quebec).

Assay [2] addresses T1, 17-beta-hydroxysteroid dehydrogenase type 1. The assay can be described thus: Enzyme Inhibition on the Conversion of E2 to E1 by 17beta-HSD1. As to conditions: pH 7.5; 37 °C. An excerpt: For steady-state kinetic study of hybrid inhibitors, a Fluorolog 3 instrument was used to monitor the fluorescent signal of NADPH formed during estradiol oxidation, through which the substrate conversion is monitored. The excitation wavelength was 340 nm, and the emission wavelength was 460 nm. […] Ki was further determined by a plot of Km vs. the inhibitor concentration.

With `C[C@]12CC[C@@H]3c4ccc(O)cc4CC[C@H]3[C@@H]1CC(CCCCCCCC(=O)OCC1OC(n3cnc4c(N)ncnc43)C(O)C1O)[C@@H]2O` (stereo partly drawn) [[5-(6-amino-9H-purin-9-yl)-3,4-dihydroxyoxolan-2-yl]methyl 8-[(1S,10R,11S,14S,15S)-5,14-dihydroxy-15-methyltetracyclo[8.7.0.0^{2,7}.0^{11,15}]heptadeca-2,4,6-trien-13-yl]octanoate], the pIC50 in assay [1] was 7.03. Consider `C[C@]12CC[C@@H]3c4ccc(O)cc4CC[C@H]3[C@@H]1CC(CCCCCCCCC(=O)OCC1OC(n3cnc4c(N)ncnc43)C(O)C1O)[C@@H]2O` (stereo not given in full) [EM1745], for which the pIC50 in assay [1] was 7.28. Moreover, the pKi in assay [2] is 8.52. Take `C[C@]12CC[C@@H]3c4ccc(O)cc4CC[C@H]3[C@@H]1CC(CCCCCCCCCC(=O)OCC1OC(n3cnc4c(N)ncnc43)C(O)C1O)[C@@H]2O` (stereo partly drawn) [[5-(6-amino-9H-purin-9-yl)-3,4-dihydroxyoxolan-2-yl]methyl 10-[(1S,10R,11S,14S,15S)-5,14-dihydroxy-15-methyltetracyclo[8.7.0.0^{2,7}.0^{11,15}]heptadeca-2,4,6-trien-13-yl]decanoate]: the pIC50 in assay [1] is 6.85.

Take `CCCCCCCCC(=O)OCC1OC(n2cnc3c(N)ncnc32)C(O)C1O` (stereo not given) [[5-(6-amino-9H-purin-9-yl)-3,4-dihydroxyoxolan-2-yl]methyl nonanoate]: the pKi in assay [2] was 3.60.
